These results are taken from patent publication US10508085B2, “Compounds and methods for IDO and TDO modulation, and indications therefor” (Plexxikon Inc., priority 2016, dated 2019).

Where two headings read alike, the source gives them in different places.

The target in experiment [1] is T1, Human Indoleamine 2,3-dioxygenase (IDO) (Homo sapiens, UniProt P14902).
T1 construct: His tag (N); made in house; host or cells: E. coli
Nature of the experiment: Human IDO enzymatic assay (kynurenine level). In kind it is biochemical. The essentials: (§1)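 IDO conditions: 6 nM His-IDO, 10 μM L-Trp, 5 μM methylene blue, 20 min, RT. TDO conditions: 1 nM His-TDO, 350 μM L-Trp, 0.4 μM methylene blue, 70 min, RT. Both used pH 6.5 phosphate plus ascorbate/catalase, TCA stop at 50° C, kynurenine readout, nonlinear-regression IC50.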

In experiment [2] the target is T2, human TDO (TDO-expressing HEK293 cells) (Homo sapiens, UniProt P48775).
T2 construct: expressed in transfected cells
T2 sequence (P48775 whole entry): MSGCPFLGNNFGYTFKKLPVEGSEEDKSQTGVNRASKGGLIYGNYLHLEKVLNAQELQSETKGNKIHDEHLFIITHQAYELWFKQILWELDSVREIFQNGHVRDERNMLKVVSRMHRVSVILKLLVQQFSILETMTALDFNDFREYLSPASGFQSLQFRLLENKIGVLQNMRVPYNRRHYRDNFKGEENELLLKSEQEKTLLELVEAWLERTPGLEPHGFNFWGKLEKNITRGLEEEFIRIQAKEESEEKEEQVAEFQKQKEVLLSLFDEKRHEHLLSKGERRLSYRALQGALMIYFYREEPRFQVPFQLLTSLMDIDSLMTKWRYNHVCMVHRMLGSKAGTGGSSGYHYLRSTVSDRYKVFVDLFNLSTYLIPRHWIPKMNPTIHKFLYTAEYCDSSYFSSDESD
Nature of the experiment: Cell based kynurenine assay, TDO-expressing HEK293 cell clones. Here is the method: (§2) Determine Inhibitor Activity Against IDO or TDO in Cell Based Kynurenine Assay
(§3) IDO1-expressing or TDO-expressing HEK293 cell clones are generated upon stable transfection of plasmids expressing human IDO or human TDO under the control of CMV promoter. Cells are selected in DMEM media supplemented with 10% fetal bovine serum and 1 mg/ml G418 at 37° C. in a humidified incubator supplied with 5% CO2. The assays are performed as follows.
(§4) Cells were seeded in a 96 well plate in 50 μL of culture media at a density of 2.5×10^4 per well. Serial dilutions of compounds (in total volume of 50 μL culture media) are added into cells. 4 wells containing 0.2% DMSO treated cells serve as high controls and 4 wells containing media only with 0.2% DMSO serve as low controls. After 24 hours of incubation, the supernatant was transferred to a 384 well reaction plate and the kynurenine level determined. The percentage inhibition at individual concentrations relative to high and low controls is calculated. The data is analyzed by using nonlinear regression to generate IC50 values.

In experiment [3] the target is T3, human IDO (IDO1-expressing HEK293 cells) (Homo sapiens, UniProt P14902).
T3 construct: expressed in transfected cells
T3 sequence (P14902 whole entry): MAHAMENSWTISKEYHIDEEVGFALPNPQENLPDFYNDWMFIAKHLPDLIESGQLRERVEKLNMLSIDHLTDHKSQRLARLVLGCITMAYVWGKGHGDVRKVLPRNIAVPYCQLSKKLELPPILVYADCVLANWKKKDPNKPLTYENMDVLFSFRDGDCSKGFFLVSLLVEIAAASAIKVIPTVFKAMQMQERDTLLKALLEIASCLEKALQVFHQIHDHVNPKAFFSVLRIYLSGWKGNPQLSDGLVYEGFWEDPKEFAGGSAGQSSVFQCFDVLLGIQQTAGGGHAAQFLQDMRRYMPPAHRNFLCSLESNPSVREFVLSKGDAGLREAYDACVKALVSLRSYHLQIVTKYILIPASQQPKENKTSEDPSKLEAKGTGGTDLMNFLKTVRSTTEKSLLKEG
Nature of the experiment: Cell based kynurenine assay, IDO1-expressing HEK293 cell clones. The conditions noted are these: IDO1-expressing HEK293 cells, geometric mean, read-out: HEK293 IDO1 Kynurenine GMean IC50 (μM) (Cellular Assay). Here is the method: as §2, §3, §4

Experiment [4] addresses T4, Human Tryptophan 2,3-dioxygenase (TDO) (Homo sapiens, UniProt P48775).
T4 construct: His tag (N); made in house; host or cells: E. coli
Nature of the experiment: Human TDO enzymatic assay (kynurenine level). Type of experiment: biochemical. The essentials: as §1

[5] abbreviates: 6 nM IDO, 10 μM L-Trp, geometric mean, read-out: IDO1 GMean: IC50 (μM) (Biochemical Assay).
Where [6] appears, read: TDO-expressing HEK293 cells, 24 hours, geometric mean, read-out: HEK293 TDO Kynurenine GMean IC50 (μM) (Cellular Assay).
Setting [7] is: 1 nM TDO, 350 μM L-Trp, geometric mean, read-out: TDO GMean: IC50 (μM) (Biochemical Assay).
Setting [8] is: TDO-expressing HEK293 cells, 24 hours incubation, geometric mean, read-out: HEK293 TDO Kynurenine GMean IC50 (μM) (Cellular Assay).
[9] abbreviates: biochemical assay, comparative examples, 4,6 versus 5,7 indazole, read-out: IDO1.
Where [10] appears, read: cellular assay, HEK293, 24 hours, comparative examples, read-out: hTDO.
The mark [11] stands for this setting: biochemical assay, comparative examples, 4,6 versus 5,7 indazole, read-out: TDO.

T4 sequence (P48775 whole entry): as the sequence (P48775 whole entry) above
T1 sequence (P14902 whole entry): as the sequence (P14902 whole entry) above

As to `CC(C)(C(O)c1cc(Cl)cc2cn[nH]c12)[C@H]1C[C@H]2CC[C@@H](C1)N2C(=O)NC1CC1` (stereo partly drawn) [Compound P-0439, (1R,3r,5S)-3-(1-(5-chloro-1H-indazol-7-yl)-1-hydroxy-2-methylpropan-2-yl)-N-cyclopropyl-8-azabicyclo [3.2.1]octane-8-carboxamide], the IC50 in experiment [1] (setting [5]), in experiment [2] (setting [6]), in experiment [3] (24 hours) and in experiment [4] (setting [7]) was 0.0001 to 10 µM each time.

For `CC(C)(C1CCN(C(=O)NCC2CC2)CC1)[C@H](O)c1cc(Cl)cc2cn[nH]c12` [Compound P-0560, (S)-4-(1-(5-chloro-1H-indazol-7-yl)-1-hydroxy-2-methylpropan-2-yl)-N-(cyclopropylmethyl) piperidine-1-carboxamide], the IC50 in experiment [1] (setting [5]), in experiment [2] (setting [6]), in experiment [3] (24 hours) and in experiment [4] (setting [7]) was 0.0001 to 10 µM each time.

`O=C(Nc1ccc(F)cc1)N1CCC(C2(C(O)c3cc(Cl)cc4cn[nH]c34)CC2)CC1` (stereo not shown) [Compound P-0157, 4-(1-((5-chloro-1H-indazol-7-yl)(hydroxy)methyl)cyclopropyl)-N-(4-fluorophenyl)piperidine-1-carboxamide]: the IC50 in experiment [1] (setting [5]), in experiment [2] (setting [8]), in experiment [3] (24 hours incubation) and in experiment [4] (setting [7]) was 0.0001 to 10 µM throughout.

As for `CN1CCN(Cc2ccc(NC(=O)N3CCC(C(C)(C)C(O)c4cc(Cl)cc5cn[nH]c45)CC3)cc2)CC1` (stereo not shown) [Compound P-0491, 4-(1-(5-chloro-1H-indazol-7-yl)-1-hydroxy-2-methylpropan-2-yl)-N-(4-((4-methylpiperazin-1-yl)methyl)phenyl) piperidine-1-carboxamide], the IC50 in experiment [1] (setting [5]), in experiment [2] (setting [6]), in experiment [3] (24 hours) and in experiment [4] (setting [7]) was 0.0001 to 10 µM each time.

As for `OC1(c2cc(Cl)cc3cn[nH]c23)CCC1` [Compound P-0206, 1-(5-chloro-1H-indazol-7-yl)cyclobutan-1-ol], the IC50 in experiment [1] (setting [5]) was 10 to 100 µM; in experiment [2] (setting [8]), 0.0001 to 10 µM; in experiment [3] (24 hours incubation), > 10 µM; in experiment [4] (setting [7]), 10 to 100 µM.

On to `CC(C)(C1CCN(C(=O)CC2CCOCC2)CC1)[C@H](O)c1cc(Cl)cc2cn[nH]c12` [Compound P-0532, (S)-1-(4-(1-(5-chloro-1H-indazol-7-yl)-1-hydroxy-2-methylpropan-2-yl)piperidin-1-yl)-2-(tetrahydro-2H-pyran-4-yl)ethan-1-one], for which the IC50 in experiment [1] (setting [5]), in experiment [2] (setting [6]), in experiment [3] (24 hours) and in experiment [4] (setting [7]) was 0.0001 to 10 µM each time.

With `OC(c1cccc2cncn12)C12CC3CC(CC(C3)C1)C2` [Compound P-0087, ((1S,3s)-adamantan-1-yl)(imidazo[1,5-a]pyridin-5-yl)methanol], the IC50 was 0.0001 to 10 µM in experiment [1] (setting [5]), > 10 µM in experiment [2] (setting [8]), 0.0001 to 10 µM in experiment [3] (24 hours incubation) and 0.0001 to 10 µM in experiment [4] (setting [7]).

For `CC(C)CC(=O)N1CCC(C(C)(C)C(O)c2cc(Cl)cc3cn[nH]c23)CC1` (stereo not shown) [Compound P-0411, 1-(4-(1-(5-chloro-1H-indazol-7-yl)-1-hydroxy-2-methylpropan-2-yl)piperidin-1-yl)-3-methylbutan-1-one], the IC50 in experiment [1] (setting [5]), in experiment [2] (setting [6]), in experiment [3] (24 hours) and in experiment [4] (setting [7]) was 0.0001 to 10 µM each time.

In the case of `OC(c1c(F)c(Cl)cc2cn[nH]c12)C(F)(F)C1(O)CCC1` (stereo not shown) [Compound P-0290, 1-(2-(5-chloro-6-fluoro-1H-indazol-7-yl)-1,1-difluoro-2-hydroxyethyl)cyclobutan-1-ol], the IC50 in experiment [1] (setting [5]), in experiment [2] (setting [8]), in experiment [3] (24 hours incubation) and in experiment [4] (setting [7]) was 0.0001 to 10 µM in each case.

In the case of `CC(C)(C)C(O)c1cc(Cl)cc2cn[nH]c12` (stereo not shown) [Compound P-0212, 1-(5-chloro-1H-indazol-7-yl)-2,2-dimethylpropan-1-ol], the IC50 in experiment [1] (setting [5]), in experiment [2] (setting [8]), in experiment [3] (24 hours incubation) and in experiment [4] (setting [7]) was 0.0001 to 10 µM throughout.

With `OC1(c2cc(Cl)cc3[nH]ncc23)CC2(CCCCC2)C1` [Compound P-0371, 2-(6-chloro-1H-indazol-4-yl)spiro[3.5] nonan-2-ol], the IC50 in experiment [1] (setting [5]) was 10 to 100 µM; in experiment [2] (setting [8]), 0.0001 to 10 µM; in experiment [3] (24 hours incubation), > 10 µM; in experiment [4] (setting [7]), 0.0001 to 10 µM.

Take `CC1(C(O)c2cc(C(F)(F)F)cc3cn[nH]c23)CCCCC1` (stereo not shown) [Compound P-0013, (1-methylcyclohexyl)(5-(trifluoromethyl)-1H-indazol-7-yl)methanol]: the IC50 in experiment [1] (setting [5]), in experiment [2] (setting [8]), in experiment [3] (24 hours incubation) and in experiment [4] (setting [7]) was 0.0001 to 10 µM in each case.

With `CN(C)CCC(=O)N1CCC(C(C)(C)C(O)c2cc(Cl)cc3cn[nH]c23)CC1` (stereo not shown) [Compound P-0456, 1-(4-(1-(5-chloro-1H-indazol-7-yl)-1-hydroxy-2-methylpropan-2-yl)piperidin-1-yl)-3-(dimethylamino) propan-1-one], the IC50 in experiment [1] (setting [5]), in experiment [2] (setting [6]), in experiment [3] (24 hours) and in experiment [4] (setting [7]) was 0.0001 to 10 µM throughout.

In the case of `CC1(C(O)c2cc(Cl)cc3cn[nH]c23)COC1` (stereo not shown) [Compound P-0211, (5-chloro-1H-indazol-7-yl)(3-methyloxetan-3-yl)methanol], the IC50 in experiment [1] (setting [5]), in experiment [2] (setting [8]), in experiment [3] (24 hours incubation) and in experiment [4] (setting [7]) was 0.0001 to 10 µM throughout.

For the molecule `CC(C)(C1CCN(C(=O)NC2CC2)CC1)[C@H](O)c1cc(Cl)cc2cn[nH]c12` [Compound P-0551, (S)-4-(1-(5-chloro-1H-indazol-7-yl)-1-hydroxy-2-methylpropan-2-yl)-N-cyclopropylpiperidine-1-carboxamide], the IC50 in experiment [1] (setting [5]), in experiment [2] (setting [6]), in experiment [3] (24 hours) and in experiment [4] (setting [7]) was 0.0001 to 10 µM in each case.

On to `CC(C)(C1CCN(C(=O)c2ccc(C(F)(F)F)nc2)CC1)C(O)c1cc(Cl)cc2cn[nH]c12` (stereo not shown) [Compound P-0363, (4-(1-(5-chloro-1H-indazol-7-yl)-1-hydroxy-2-methylpropan-2-yl)piperidin-1-yl)(6-(trifluoromethyl)pyridin-3-yl)methanone], for which the IC50 in experiment [1] (setting [5]), in experiment [2] (setting [8]), in experiment [3] (24 hours incubation) and in experiment [4] (setting [7]) was 0.0001 to 10 µM each time.

On to `OC1(c2cc(Cl)cc3[nH]ncc23)CC2(CCC2)C1` [drawing 819], for which the IC50 was 22 µM in experiment [1] (setting [9]), 0.03 µM in experiment [2] (setting [10]) and 0.04 µM in experiment [4] (setting [11]).

As to `OC1(c2cc(Cl)cc3cn[nH]c23)CC2(CCC2)C1` [drawing 818], the values for the IC50 in experiment [1] (setting [9]), in experiment [2] (setting [10]) and in experiment [4] (setting [11]) were 0.14 µM, 2.94 µM and 0.04 µM, respectively.

With `OC(c1ccccc1)c1cccc2cncn12` (stereo not shown) [Compound P-0057, imidazo[1,5-a]pyridin-5-yl(phenyl)methanol], the figures for the IC50 in experiment [1] (setting [5]), in experiment [3] (24 hours incubation) and in experiment [4] (setting [7]) were 0.0001 to 10 µM, > 10 µM and 0.0001 to 10 µM, respectively.

Turning to `OC1(c2cc(Cl)cc3cn[nH]c23)CC2(CCNCC2)C1` [Compound P-0020, 2-(5-chloro-1H-indazol-7-yl)-7-azaspiro[3.5]nonan-2-ol], the IC50 is > 10 µM in experiment [2] (setting [8]), > 10 µM in experiment [3] (24 hours incubation) and > 200 µM in experiment [4] (setting [7]).

As to `OC1(c2cc(Cl)cc3[nH]ncc23)CC2(CCOCC2)C1` [drawing 821], the figures for the IC50 in experiment [1] (setting [9]), in experiment [2] (setting [10]) and in experiment [4] (setting [11]) were ≥ 200 µM, 0.57 µM and 0.18 µM, respectively.

Turning to `COC12CCC(C(O)c3cc(Cl)cc4[nH]ncc34)(CC1)CC2` (stereo not shown) [drawing 813], the IC50 is 6.6 µM in experiment [1] (setting [9]), 0.17 µM in experiment [2] (setting [10]) and 0.16 µM in experiment [4] (setting [11]).

As for `OC(c1cc(Cl)cc2[nH]ncc12)C1CCCCC1` (stereo not shown) [drawing 811], the IC50 in experiment [1] (setting [9]) is 3.25 µM; in experiment [2] (setting [10]) it was 0.05 µM; in experiment [4] (setting [11]), 6.06 µM.

As to `CC(C)(C1CCN(S(C)(=O)=O)CC1)C(O)c1cc(Cl)cc2[nH]ncc12` (stereo not shown) [drawing 815], the IC50 in experiment [1] (setting [9]) is 0.7 µM; in experiment [2] (setting [10]), 0.01 µM; in experiment [4] (setting [11]) it was 0.1 µM.
